{
  "source": "patent US11123311B2",
  "about": "“Methods of treating mental disorders” (The Regents of the University of California, priority 2016, dated 2021)",
  "key": {"experimental logP": {"assay": "experimental logP", "format": "physicochemical", "conditions": "read-out: Exp/ logP"}, "sEH [1]": {"target": "T1, sEH (Homo sapiens (Human), UniProt P34913)", "T1 sequence (P34913 whole entry)": "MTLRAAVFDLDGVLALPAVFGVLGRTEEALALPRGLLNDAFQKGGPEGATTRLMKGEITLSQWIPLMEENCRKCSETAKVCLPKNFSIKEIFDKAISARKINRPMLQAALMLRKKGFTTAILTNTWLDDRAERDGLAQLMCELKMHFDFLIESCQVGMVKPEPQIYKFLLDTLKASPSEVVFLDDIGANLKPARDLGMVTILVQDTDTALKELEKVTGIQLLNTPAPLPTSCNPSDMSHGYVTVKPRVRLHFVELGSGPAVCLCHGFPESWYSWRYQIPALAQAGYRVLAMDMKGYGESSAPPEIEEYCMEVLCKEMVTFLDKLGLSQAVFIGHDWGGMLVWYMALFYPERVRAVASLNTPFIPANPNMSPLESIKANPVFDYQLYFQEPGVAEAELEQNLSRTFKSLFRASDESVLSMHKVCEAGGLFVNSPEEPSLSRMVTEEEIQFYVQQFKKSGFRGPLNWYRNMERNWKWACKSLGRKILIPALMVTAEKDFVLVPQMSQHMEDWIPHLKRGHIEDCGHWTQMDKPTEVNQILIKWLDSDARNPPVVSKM"}, "[2]": {"test_system": "mice after social defeat stress", "conditions": "single dose; literature (37,39); cited from earlier work"}, "[3]": {"test_system": "LPS-treated depressed mice", "conditions": "literature (36); cited from earlier work"}, "PC12 cells": {"test_system": "PC12 cells", "assay": "NGF-induced neurite outgrowth in PC12 cells", "format": "cell-based", "conditions": "TPPU 0.1, 1.0 or 10 μM, 14,15-EET 0.01, 0.1 or 1.0 μM, concentration dependent", "experimental": "PC12 cells (RIKEN Cell Bank, Tsukuba, Japan) were cultured at 37° C., 5% CO2 in Dulbecco's modified Eagle's medium (DMEM), supplemented with 5% heat-inactivated fetal bovine serum (FBS), 10% heat-inactivated horse serum, and 1% penicillin-streptomycin. Medium was changed two to three times a week. PC12 cells were plated onto 24-well tissue culture plates coated with poly-D-lysine/laminin. Cells were plated at relatively low density (0.25×10^4 cells/cm^2) in DMEM medium containing 0.5% FBS, 1% penicillin-streptomycin. Medium containing a minimal level of serum (0.5% FBS) was used as previously reported (58-60). […]. Four days after incubation with NGF (2.5 ng/ml) with or without specified compounds, morphometric analysis was performed on digitized images of live cells taken under phase-contrast illumination, with an inverted microscope linked to a camera. Images of three fields per well were taken, with an average of 100 cells per field. Differentiated cells were counted by visual examination of the field; only cells that had at least one neurite with a length equal to the cell body diameter were counted, and were then expressed as a percentage of the total cells in the field. Counting was performed in a blinded manner."}, "neuronal cell cultures": {"test_system": "neuronal cell cultures", "conditions": "literature (34); cited from earlier work"}, "astrocyte": {"test_system": "astrocyte", "conditions": "literature (54); cited from earlier work"}, "TNF-α": {"test_system": "TNF-α", "assay": "serum TNF-α after LPS administration", "format": "in vivo", "conditions": "TPPU 3.0 mg/kg PO", "experimental": "Inflammation model of depression. The procedure of inflammation model of depression was performed as previously reported (36). Behavioral tests were performed 24 hours after a single administration of LPS (0.5 mg/kg). […] Serum sample was collected 90 min after LPS administration, and serum levels of TNF-α were measured using a Ready-SET-Go ELISA kit (eBioscience Inc., San Diego, Calif.), according to manufacturer's instructions. […] Behavioral tests including locomotion (LMT), tail suspension test (TST), and forced swimming test (FST) were performed 1, 3, and 5 hours after administration. […] Behavioral tests including LMT, TST, and FST were performed 24, 26, and 28 hours after administration of LPS."}, "[4]": {"conditions": "3 mg/kg PO; mice"}, "in vivo": {"assay": "in vivo", "conditions": "mouse, po, 3 mg/kg, 3 mg/kg PO, mice"}, "sEH [5]": {"target": "T1, sEH", "assay": "inhibition of sEH (standard assays)", "format": "biochemical", "text": "Any of a number of standard assays for determining epoxide hydrolase activity can be used to determine inhibition of sEH. […] Suitable in vitro assays are described in Zeldin et al., J Biol. Chem. 268:6402-6407 (1993). Suitable in vivo assays are described in Zeldin et al., Arch Biochem Biophys 330:87-96 (1996).\nThe enzyme also can be detected based on the binding of specific ligands to the catalytic site which either immobilize the enzyme or label it with a probe such as dansyl, fluoracein, luciferase, green fluorescent protein or other reagent. The enzyme can be assayed by its hydration of EETs, its hydrolysis of an epoxide to give a colored product as described by Dietze et al., 1994, supra, or its hydrolysis of a radioactive surrogate substrate (Borhan et al., 1995, supra). The enzyme also can be detected based on the generation of fluorescent products following the hydrolysis of the epoxide. Numerous methods of epoxide hydrolase detection have been described (see, e.g., Wixtrom, supra).\nThe assays are normally carried out with a recombinant enzyme following affinity purification. They can be carried out in crude tissue homogenates, cell culture or even in vivo, as known in the art and described in the references cited above."}},
  "data": [
    {"smiles": "CC(C)C(=O)N1CCC(NC(=O)Nc2ccc(OC(F)(F)F)cc2)CC1", "note": "[Compound 2389]", "values": [
      {"measurement": "logP", "setting": "experimental logP", "value": 3.37},
      {"measurement": "t1/2 (human sEH)", "setting": "sEH [1]", "value": 0.3, "unit": "h"}
    ]},
    {"smiles": "CNC1(c2ccccc2Cl)CCCCC1=O", "note": "(stereo not drawn) [ketamine]", "values": [
      {"measurement": "antidepressant effect in the social defeat stress model", "setting": "[2]", "value": "rapid antidepressant effect"}
    ]},
    {"smiles": "O=C(Nc1ccc(OC(F)(F)F)cc1)NC1CCN(C(=O)C2(C(F)(F)F)CC2)CC1", "note": "[Compound 28]", "values": [
      {"measurement": "logP", "setting": "experimental logP", "value": 4.63}
    ]},
    {"smiles": "COc1ccc(C(CN(C)C)C2(O)CCCCC2)cc1", "note": "(stereo not drawn) [venlafaxine]", "values": [
      {"measurement": "effect in the LPS-induced inflammation model of depression", "setting": "[3]", "value": "do not have any effect"}
    ]},
    {"smiles": "Fc1ccc([C@@H]2CCNC[C@H]2COc2ccc3c(c2)OCO3)cc1", "note": "[paroxetine]", "values": [
      {"measurement": "effect in the LPS-induced inflammation model of depression", "setting": "[3]", "value": "do not have any effect"}
    ]},
    {"smiles": "CCCCCC1OC1C/C=C\\C/C=C\\C/C=C\\CCCC(=O)O", "note": "(stereo not drawn) [14,15-EET]", "values": [
      {"measurement": "NGF-induced neurite outgrowth", "setting": "PC12 cells", "value": "potentiated"},
      {"measurement": "axonal growth", "setting": "neuronal cell cultures", "value": "enhance axonal growth"},
      {"measurement": "production of BDNF", "setting": "astrocyte", "value": "promote the production of BDNF"}
    ]},
    {"smiles": "CC[C@H](C)C(=O)N1CCC(NC(=O)Nc2ccc(C(F)(F)F)nc2)CC1", "note": "[Compound 42]", "values": [
      {"measurement": "logP", "setting": "experimental logP", "value": 3.22},
      {"measurement": "t1/2 (human sEH)", "setting": "sEH [1]", "value": 0.0617, "unit": "h"}
    ]},
    {"smiles": "CN[C@@]1(c2ccccc2Cl)CCCCC1=O", "note": "[R-ketamine]", "values": [
      {"measurement": "antidepressant effect in the social defeat stress model", "setting": "[2]", "value": "rapid antidepressant effect"}
    ]},
    {"smiles": "CCC(=O)N1CCC(NC(=O)Nc2ccc(OC(F)(F)F)cc2)CC1", "note": "[TPPU]", "values": [
      {"measurement": "serum levels of TNF-α in control mice", "setting": "TNF-α", "value": "no effect"},
      {"measurement": "half-life in the blood (plasma)", "setting": "[4]", "value": 17.8, "unit": "h"},
      {"measurement": "half-life in the cerebral cortex", "setting": "[4]", "value": 10.7, "unit": "h"},
      {"measurement": "half-life", "setting": "in vivo; half-life in the blood (plasma)", "value": 17.8, "unit": "h"},
      {"measurement": "half-life", "setting": "in vivo; half-life in the cerebral cortex", "value": 10.7, "unit": "h"}
    ]},
    {"smiles": "CCCCCCCCCCCCNC(=O)NC12CC3CC(CC(C3)C1)C2", "note": "[ADU, N-Adamantyl-N′-dodecyl urea]", "values": [
      {"measurement": "activity as an inhibitor of sEH", "setting": "sEH [5]", "value": "particularly high activity"}
    ]}
  ]
}
